Laboratory results reported in the supplement of paper PMC10307832.

Tests used:
Test in all cases: relative viability (nuclei count vs DMSO), 5 days (fraction); higher = more cells survive
NCI-H661 = test system: NCI-H661
Summary of the method: (§1)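 Medians of duplicate plates are given as relative viability. That measure is the nuclei count in treated wells divided by the count in vehicle wells. Counts were taken on 4× images of lung cancer cell lines in 1536-well plates, 5 days after pin-tool dosing the day after seeding with one drug alone or a fixed anchor-drug dose plus five library-drug doses (not always all listed) in √10 steps.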

NCI-H650 = test system: NCI-H650
Summary of the method: as §1

A-427 = test system: A-427
Summary of the method: as §1

NCI-H1944 = test system: NCI-H1944
Summary of the method: as §1

LC-2-ad = test system: LC-2-ad
Summary of the method: as §1

BEN = test system: BEN
Summary of the method: as §1

HCC-15 = test system: HCC-15
Summary of the method: as §1

NCI-H1650 = test system: NCI-H1650
Summary of the method: as §1

NCI-H1915 = test system: NCI-H1915
Summary of the method: as §1

NCI-H1651 = test system: NCI-H1651
Summary of the method: as §1

NCI-H1792 = test system: NCI-H1792
Summary of the method: as §1

201T = test system: 201T
Summary of the method: as §1

NCI-H460 = test system: NCI-H460
Summary of the method: as §1

H3255 = test system: H3255
Summary of the method: as §1

CAL-12T = test system: CAL-12T
Summary of the method: as §1

NCI-H520 = test system: NCI-H520
Summary of the method: as §1

LCLC-97TM1 = test system: LCLC-97TM1
Summary of the method: as §1

NCI-H2023 = test system: NCI-H2023
Summary of the method: as §1

NCI-H441 = test system: NCI-H441
Summary of the method: as §1

PC-3 [JPC-3] = test system: PC-3 [JPC-3]
Summary of the method: as §1

NCI-H596 = test system: NCI-H596
Summary of the method: as §1

ABC-1 = test system: ABC-1
Summary of the method: as §1

NCI-H727 = test system: NCI-H727
Summary of the method: as §1

NCI-H2087 = test system: NCI-H2087
Summary of the method: as §1

Compound: Clc1ccc(Nc2nnc(Cc3ccncc3)c3ccccc23)cc1 [Vatalanib] + CS(=O)(=O)N1CCN(Cc2cc3nc(-c4cccc5[nH]ncc45)nc(N4CCOCC4)c3s2)CC1 [Pictilisib] (partner 1 µM)
- relative viability (NCI-H661; first compound 0.04 µM): 0.345
- relative viability (NCI-H661; first compound 0.1265 µM): 0.378
- relative viability (NCI-H661; first compound 0.4 µM): 0.392
- relative viability (NCI-H661; first compound 1.265 µM): 0.365
- relative viability (NCI-H661; first compound 4 µM): 0.34
- relative viability (NCI-H650; first compound 0.04 µM): 0.875
- relative viability (NCI-H650; first compound 0.1265 µM): 0.914
- relative viability (NCI-H650; first compound 1.265 µM): 0.868
- relative viability (NCI-H650; first compound 4 µM): 0.909
- relative viability (A-427; first compound 0.04 µM): 0.667
- relative viability (A-427; first compound 0.1265 µM): 0.671
- relative viability (A-427; first compound 0.4 µM): 0.736
- relative viability (A-427; first compound 1.265 µM): 0.624
- relative viability (A-427; first compound 4 µM): 0.677
- relative viability (NCI-H1944; first compound 0.04 µM): 0.351
- relative viability (NCI-H1944; first compound 0.1265 µM): 0.316
- relative viability (NCI-H1944; first compound 0.4 µM): 0.37
- relative viability (NCI-H1944; first compound 1.265 µM): 0.356
- relative viability (NCI-H1944; first compound 4 µM): 0.352
- relative viability (LC-2-ad; first compound 0.04 µM): 0.574
- relative viability (LC-2-ad; first compound 0.1265 µM): 0.551
- relative viability (LC-2-ad; first compound 0.4 µM): 0.559
- relative viability (LC-2-ad; first compound 1.265 µM): 0.509
- relative viability (LC-2-ad; first compound 4 µM): 0.645
- relative viability (BEN; first compound 0.04 µM): 0.552
- relative viability (BEN; first compound 0.1265 µM): 0.495
- relative viability (BEN; first compound 0.4 µM): 0.529
- relative viability (BEN; first compound 1.265 µM): 0.555
- relative viability (BEN; first compound 4 µM): 0.65
- relative viability (HCC-15; first compound 0.04 µM): 0.788
- relative viability (HCC-15; first compound 0.1265 µM): 0.741
- relative viability (HCC-15; first compound 0.4 µM): 0.799
- relative viability (HCC-15; first compound 1.265 µM): 0.716
- relative viability (HCC-15; first compound 4 µM): 0.786
- relative viability (NCI-H1650; first compound 0.04 µM): 0.612
- relative viability (NCI-H1650; first compound 0.1265 µM): 0.556
- relative viability (NCI-H1650; first compound 0.4 µM): 0.578
- relative viability (NCI-H1650; first compound 1.265 µM): 0.55
- relative viability (NCI-H1650; first compound 4 µM): 0.592
- relative viability (NCI-H1915; first compound 0.04 µM): 1.12
- relative viability (NCI-H1915; first compound 0.1265 µM): 0.929
- relative viability (NCI-H1915; first compound 0.4 µM): 0.972
- relative viability (NCI-H1915; first compound 1.265 µM): 0.863
- relative viability (NCI-H1915; first compound 4 µM): 0.942
- relative viability (NCI-H1651; first compound 0.04 µM): 0.646
- relative viability (NCI-H1651; first compound 0.1265 µM): 0.276
- relative viability (NCI-H1651; first compound 0.4 µM): 0.642
- relative viability (NCI-H1651; first compound 1.265 µM): 0.511
- relative viability (NCI-H1651; first compound 4 µM): 0.594
- relative viability (NCI-H1792; first compound 0.04 µM): 0.279
- relative viability (NCI-H1792; first compound 0.1265 µM): 0.327
- relative viability (NCI-H1792; first compound 0.4 µM): 0.249
- relative viability (NCI-H1792; first compound 1.265 µM): 0.276
- relative viability (NCI-H1792; first compound 4 µM): 0.28
- relative viability (201T; first compound 0.04 µM): 0.694
- relative viability (201T; first compound 0.1265 µM): 0.667
- relative viability (201T; first compound 0.4 µM): 0.706
- relative viability (201T; first compound 1.265 µM): 0.663
- relative viability (201T; first compound 4 µM): 0.722
- relative viability (NCI-H460; first compound 0.04 µM): 0.361
- relative viability (NCI-H460; first compound 0.1265 µM): 0.356
- relative viability (NCI-H460; first compound 0.4 µM): 0.378
- relative viability (NCI-H460; first compound 1.265 µM): 0.352
- relative viability (NCI-H460; first compound 4 µM): 0.312
- relative viability (H3255; first compound 0.04 µM): 0.43
- relative viability (H3255; first compound 0.1265 µM): 0.52
- relative viability (H3255; first compound 0.4 µM): 0.311
- relative viability (H3255; first compound 1.265 µM): 0.384
- relative viability (H3255; first compound 4 µM): 0.438
- relative viability (CAL-12T; first compound 0.04 µM): 0.238
- relative viability (CAL-12T; first compound 0.1265 µM): 0.39
- relative viability (CAL-12T; first compound 1.265 µM): 0.446
- relative viability (CAL-12T; first compound 4 µM): 0.463
- relative viability (NCI-H520; first compound 0.04 µM): 0.312
- relative viability (NCI-H520; first compound 0.1265 µM): 0.277
- relative viability (NCI-H520; first compound 0.4 µM): 0.34
- relative viability (NCI-H520; first compound 1.265 µM): 0.306
- relative viability (NCI-H520; first compound 4 µM): 0.308
- relative viability (LCLC-97TM1; first compound 0.04 µM): 0.136
- relative viability (LCLC-97TM1; first compound 0.1265 µM): 0.243
- relative viability (LCLC-97TM1; first compound 0.4 µM): 0.187
- relative viability (LCLC-97TM1; first compound 1.265 µM): 0.19
- relative viability (LCLC-97TM1; first compound 4 µM): 0.195
- relative viability (NCI-H2023; first compound 0.04 µM): 0.252
- relative viability (NCI-H2023; first compound 0.1265 µM): 0.255
- relative viability (NCI-H2023; first compound 0.4 µM): 0.318
- relative viability (NCI-H2023; first compound 1.265 µM): 0.218
- relative viability (NCI-H2023; first compound 4 µM): 0.226
- relative viability (NCI-H441; first compound 0.04 µM): 0.561
- relative viability (NCI-H441; first compound 0.1265 µM): 0.4
- relative viability (NCI-H441; first compound 0.4 µM): 0.592
- relative viability (NCI-H441; first compound 1.265 µM): 0.474
- relative viability (NCI-H441; first compound 4 µM): 0.501
- relative viability (PC-3 [JPC-3]; first compound 0.04 µM): 0.796
- relative viability (PC-3 [JPC-3]; first compound 0.1265 µM): 0.715
- relative viability (PC-3 [JPC-3]; first compound 0.4 µM): 0.645
- relative viability (PC-3 [JPC-3]; first compound 1.265 µM): 0.726
- relative viability (PC-3 [JPC-3]; first compound 4 µM): 0.752
- relative viability (NCI-H596; first compound 0.04 µM): 0.347
- relative viability (NCI-H596; first compound 0.1265 µM): 0.353
- relative viability (NCI-H596; first compound 0.4 µM): 0.392
- relative viability (NCI-H596; first compound 1.265 µM): 0.371
- relative viability (NCI-H596; first compound 4 µM): 0.393
- relative viability (ABC-1; first compound 0.04 µM): 0.888
- relative viability (ABC-1; first compound 0.1265 µM): 0.78
- relative viability (ABC-1; first compound 0.4 µM): 0.877
- relative viability (ABC-1; first compound 1.265 µM): 0.71
- relative viability (ABC-1; first compound 4 µM): 0.784
- relative viability (NCI-H727; first compound 0.04 µM): 0.421
- relative viability (NCI-H727; first compound 0.1265 µM): 0.355
- relative viability (NCI-H727; first compound 0.4 µM): 0.359
- relative viability (NCI-H727; first compound 1.265 µM): 0.399
- relative viability (NCI-H727; first compound 4 µM): 0.433
- relative viability (NCI-H2087; first compound 0.04 µM): 0.871
- relative viability (NCI-H2087; first compound 0.1265 µM): 0.752
- relative viability (NCI-H2087; first compound 0.4 µM): 1.15
- relative viability (NCI-H2087; first compound 1.265 µM): 0.826
- relative viability (NCI-H2087; first compound 4 µM): 0.931
